Laboratory results published in ChEMBL document CHEMBL1201861, “Genomics of Drug Sensitity in Cancer screening data, Wellcome Trust Sanger Institute”.

Columns and labels:
Assay in all cases: cells
[1] = system: SNB-75; type: functional, cell-based, Homo sapiens; conditions: Homo sapiens, SNB-75;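 note: cell viability assay measuring growth inhibition of human SNB-75 cells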
Description: SANGER: Inhibition of human SNB75 cell growth in a cell viability assay.

[2] = system: NB6; type: functional, cell-based, Homo sapiens; conditions: Homo sapiens, NB6;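 note: growth inhibition of NB6 cells, read out by a cell viability assay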
Description: SANGER: Inhibition of human NB6 cell growth in a cell viability assay.

[3] = system: IST-SL1; type: functional, cell-based, Homo sapiens; conditions: Homo sapiens, IST-SL1;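 note: growth inhibition of human IST-SL1 cells, read out with a cell viability assay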
Description: SANGER: Inhibition of human IST-SL1 cell growth in a cell viability assay.

[4] = system: NB69; type: functional, cell-based, Homo sapiens; conditions: Homo sapiens, NB69;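 note: growth inhibition of NB69 cells, determined by a cell viability assay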
Description: SANGER: Inhibition of human NB69 cell growth in a cell viability assay.

[5] = system: A4-Fuk; type: functional, cell-based, Homo sapiens; conditions: Homo sapiens, A4-Fuk;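 note: growth inhibition of A4-Fuk cells, read out by a cell viability assay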
Description: SANGER: Inhibition of human A4-Fuk cell growth in a cell viability assay.

[6] = system: NKM-1; type: functional, cell-based, Homo sapiens; conditions: Homo sapiens, NKM-1;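 note: growth inhibition of NKM-1 cells, read out with a cell viability assay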
Description: SANGER: Inhibition of human NKM-1 cell growth in a cell viability assay.

[7] = system: LB831-BLC; type: functional, cell-based, Homo sapiens; conditions: Homo sapiens, LB831-BLC;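 note: growth inhibition of LB831-BLC cells, read out with a cell viability assay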
Description: SANGER: Inhibition of human LB831-BLC cell growth in a cell viability assay.

[8] = system: ES5; type: functional, cell-based, Homo sapiens; conditions: Homo sapiens, ES5;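 note: growth inhibition of human ES5 cells, read out by a cell viability assay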
Description: SANGER: Inhibition of human ES5 cell growth in a cell viability assay.

[9] = system: SW 962; type: functional, cell-based, Homo sapiens; conditions: Homo sapiens, SW 962;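 note: growth inhibition of human SW962 cells, read out by a cell viability assay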
Description: SANGER: Inhibition of human SW962 cell growth in a cell viability assay.

[10] = system: RCC10RGB; type: functional, cell-based, Homo sapiens; conditions: Homo sapiens, RCC10RGB;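 note: growth inhibition of human RCC10RGB cells, read out by a cell viability assay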
Description: SANGER: Inhibition of human RCC10RGB cell growth in a cell viability assay.

[11] = system: MOLT-16; type: functional, cell-based, Homo sapiens; conditions: Homo sapiens, MOLT-16;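 note: growth inhibition of human MOLT-16 cells, read out with a cell viability assay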
Description: SANGER: Inhibition of human MOLT-16 cell growth in a cell viability assay.

[12] = system: ES4; type: functional, cell-based, Homo sapiens; conditions: Homo sapiens, ES4;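 note: growth inhibition of human ES4 cells, read out by a cell viability assay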
Description: SANGER: Inhibition of human ES4 cell growth in a cell viability assay.

[13] = system: U-87 MG; type: functional, cell-based, Homo sapiens, U-87MG ATCC; conditions: Homo sapiens, U-87 MG;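 note: growth inhibition of the cells measured with a viability assay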
Description: SANGER: Inhibition of human U-87-MG cell growth in a cell viability assay.

[14] = system: HAL-01; type: functional, cell-based, Homo sapiens; conditions: Homo sapiens, HAL-01;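 note: growth inhibition of human HAL-01 cells, read out with a cell viability assay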
Description: SANGER: Inhibition of human HAL-01 cell growth in a cell viability assay.

[15] = system: NCI-H446; type: functional, cell-based, Homo sapiens; conditions: Homo sapiens, NCI-H446;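 note: growth inhibition of NCI-H446 cells determined by a cell viability assay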
Description: SANGER: Inhibition of human NCI-H446 cell growth in a cell viability assay.

[16] = system: ETK-1; type: functional, cell-based, Homo sapiens; conditions: Homo sapiens, ETK-1;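 note: growth inhibition of human ETK-1 cells, read out with a cell viability assay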
Description: SANGER: Inhibition of human ETK-1 cell growth in a cell viability assay.

[17] = system: EKVX; type: functional, cell-based, Homo sapiens; conditions: Homo sapiens, EKVX;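 note: growth inhibition of human EKVX cells, read out with a cell viability assay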
Description: SANGER: Inhibition of human EKVX cell growth in a cell viability assay.

[18] = system: MFM-223; type: functional, cell-based, Homo sapiens; conditions: Homo sapiens, MFM-223
Description: SANGER: Inhibition of human MFM-223 cell growth in a cell viability assay.

[19] = system: TGBC24TKB; type: functional, cell-based, Homo sapiens; conditions: Homo sapiens, TGBC24TKB;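 note: growth inhibition of human TGBC24TKB cells, read out with a cell viability assay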
Description: SANGER: Inhibition of human TGBC24TKB cell growth in a cell viability assay.

[20] = system: GAK; type: functional, cell-based, Homo sapiens; conditions: Homo sapiens, GAK;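 note: cell growth inhibition read out by a cell viability assay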
Description: SANGER: Inhibition of human GAK cell growth in a cell viability assay.

[21] = system: MEG-01; type: functional, cell-based, Homo sapiens; conditions: Homo sapiens, MEG-01;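 note: growth inhibition of MEG-01 cells, read out by a cell viability assay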
Description: SANGER: Inhibition of human MEG-01 cell growth in a cell viability assay.

[22] = system: SF-268; type: functional, cell-based, Homo sapiens; conditions: Homo sapiens, SF-268;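 note: growth inhibition of SF-268 cells determined with a cell viability assay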
Description: SANGER: Inhibition of human SF268 cell growth in a cell viability assay.

[23] = system: LS-1034; type: functional, cell-based, Homo sapiens; conditions: Homo sapiens, LS-1034
Description: SANGER: Inhibition of human LS-1034 cell growth in a cell viability assay.

[24] = system: SW982; type: functional, cell-based, Homo sapiens; conditions: Homo sapiens, SW982;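 note: growth inhibition of SW982 cells, read out with a cell viability assay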
Description: SANGER: Inhibition of human SW982 cell growth in a cell viability assay.

[25] = system: 8-MG-BA; type: functional, cell-based, Homo sapiens; conditions: Homo sapiens, 8-MG-BA;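 note: growth inhibition of 8-MG-BA cells, read out with a cell viability assay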
Description: SANGER: Inhibition of human 8-MG-BA cell growth in a cell viability assay.

[26] = system: Mo; type: functional, cell-based, Homo sapiens; conditions: Homo sapiens, Mo
Description: SANGER: Inhibition of human Mo-T cell growth in a cell viability assay.

[27] = system: NOS-1; type: functional, cell-based, Homo sapiens; conditions: Homo sapiens, NOS-1;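 note: growth inhibition of the human NOS-1 cell line, read out with a cell viability assay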
Description: SANGER: Inhibition of human NOS-1 cell growth in a cell viability assay.

[28] = system: MOLT-4; type: functional, cell-based, Homo sapiens; conditions: Homo sapiens, MOLT-4;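 note: growth inhibition of MOLT-4 cells, determined with a cell viability readout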
Description: SANGER: Inhibition of human MOLT-4 cell growth in a cell viability assay.

[29] = system: EW-11; type: functional, cell-based, Homo sapiens; conditions: Homo sapiens, EW-11;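 note: growth inhibition of human EW-11 cells, measured with a cell viability assay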
Description: SANGER: Inhibition of human EW-11 cell growth in a cell viability assay.

[30] = system: TE-8; type: functional, cell-based, Homo sapiens; conditions: Homo sapiens, TE-8;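 note: growth inhibition of TE-8 cells, measured with a cell viability readout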
Description: SANGER: Inhibition of human TE-8 cell growth in a cell viability assay.

[31] = system: SH-4; type: functional, cell-based, Homo sapiens; conditions: Homo sapiens, SH-4;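 note: growth inhibition of SH-4 cells, read out with a cell viability assay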
Description: SANGER: Inhibition of human SH-4 cell growth in a cell viability assay.

[32] = system: HL-60; type: functional, cell-based, Homo sapiens; conditions: Homo sapiens, HL-60;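 note: growth inhibition of human HL-60 cells, read out with a cell viability assay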
Description: SANGER: Inhibition of human HL-60 cell growth in a cell viability assay.

[33] = system: DJM-1; type: functional, cell-based, Homo sapiens; conditions: Homo sapiens, DJM-1;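 note: growth inhibition of human DJM-1 cells, read out by a cell viability assay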
Description: SANGER: Inhibition of human DJM-1 cell growth in a cell viability assay.

[34] = system: LB2241-RCC; type: functional, cell-based, Homo sapiens; conditions: Homo sapiens, LB2241-RCC;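 note: cell viability assay measuring how strongly the cultured human renal carcinoma line is prevented from growing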
Description: SANGER: Inhibition of human LB2241-RCC cell growth in a cell viability assay.

[35] = system: LB771-HNC; type: functional, cell-based, Homo sapiens; conditions: Homo sapiens, LB771-HNC;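 note: growth inhibition of LB771-HNC human cells, read out with a cell viability assay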
Description: SANGER: Inhibition of human LB771-HNC cell growth in a cell viability assay.

[36] = system: HD-MY-Z; type: functional, cell-based, Homo sapiens; conditions: Homo sapiens, HD-MY-Z;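 note: growth inhibition of HD-MY-Z cells, read out with a cell viability assay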
Description: SANGER: Inhibition of human HD-MY-Z cell growth in a cell viability assay.

[37] = system: BV-173; type: functional, cell-based, Homo sapiens; conditions: Homo sapiens, BV-173
Description: SANGER: Inhibition of human BV-173 cell growth in a cell viability assay.

[38] = system: ES7; type: functional, cell-based, Homo sapiens; conditions: Homo sapiens, ES7;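 note: growth inhibition of cultured human ES7 cells, read out as cell viability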
Description: SANGER: Inhibition of human ES7 cell growth in a cell viability assay.

[39] = system: SW872; type: functional, cell-based, Homo sapiens; conditions: Homo sapiens, SW872;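 note: growth inhibition of SW872 cells, read out by a viability assay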
Description: SANGER: Inhibition of human SW872 cell growth in a cell viability assay.

[40] = system: MZ7-mel; type: functional, cell-based, Homo sapiens; conditions: Homo sapiens, MZ7-mel;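 note: growth inhibition of human MZ7-mel cells, measured by a cell viability assay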
Description: SANGER: Inhibition of human MZ7-mel cell growth in a cell viability assay.

[41] = system: P30-OHK; type: functional, cell-based, Homo sapiens; conditions: Homo sapiens, P30-OHK;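 note: growth inhibition of the P30-OHK cell line, read out with a cell viability assay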
Description: SANGER: Inhibition of human P30-OHK cell growth in a cell viability assay.

[42] = system: 697; type: functional, cell-based, Homo sapiens; conditions: Homo sapiens
Description: SANGER: Inhibition of human 697 cell growth in a cell viability assay.

[43] = system: MHH-PREB-1; type: functional, cell-based, Homo sapiens; conditions: Homo sapiens, MHH-PREB-1;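 note: cell viability assay measuring inhibition of proliferation of human MHH-PREB-1 cells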
Description: SANGER: Inhibition of human MHH-PREB-1 cell growth in a cell viability assay.

[44] = system: SCC-15; type: functional, cell-based, Homo sapiens; conditions: Homo sapiens, SCC-15;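 note: growth inhibition of SCC-15 cells, read out with a cell viability assay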
Description: SANGER: Inhibition of human SCC-15 cell growth in a cell viability assay.

[45] = system: TE-5; type: functional, cell-based, Homo sapiens; conditions: Homo sapiens, TE-5;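 note: inhibition of cell growth, read out by a cell viability assay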
Description: SANGER: Inhibition of human TE-5 cell growth in a cell viability assay.

[46] = system: NCI-H1838; type: functional, cell-based, Homo sapiens; conditions: Homo sapiens, NCI-H1838;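 note: growth inhibition of NCI-H1838 cells, determined with a cell viability readout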
Description: SANGER: Inhibition of human NCI-H1838 cell growth in a cell viability assay.

[47] = system: HC-1; type: functional, cell-based, Homo sapiens; conditions: Homo sapiens, HC-1;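 note: growth inhibition of HC-1 cells measured by a cell viability assay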
Description: SANGER: Inhibition of human HC-1 cell growth in a cell viability assay.

[48] = system: L-363; type: functional, cell-based, Homo sapiens; conditions: Homo sapiens, L-363
Description: SANGER: Inhibition of human L-363 cell growth in a cell viability assay.

In the case of COc1cc2ncn(-c3cc(OCc4ccccc4C(F)(F)F)c(C(N)=O)s3)c2cc1OC [GW843682X], the IC50 [1] is reported as 97.9 nM, the IC50 [2] is reported as 142 nM and the IC50 [3] is reported as > 256 nM. The IC50 [4] was > 256 nM, the IC50 [5] was 20.8 nM and the IC50 [6] was 138 nM. The IC50 [7] was 200 nM, the IC50 [8] was > 256 nM and the IC50 [9] was 42.2 nM. The IC50 [10] was > 256 nM, the IC50 [11] was 31.5 nM and the IC50 [12] was 18.4 nM. For the same compound, the IC50 [13] was > 256 nM, the IC50 [14] was 80.8 nM and the IC50 [15] was 12 nM. The IC50 [16] was 17.3 nM, the IC50 [17] was > 256 nM and the IC50 [18] was > 256 nM. The IC50 [19] was 45 nM, the IC50 [20] was 185 nM and the IC50 [21] was 41.9 nM. For the same compound, the IC50 [22] was 83 nM, the IC50 [23] was 59.7 nM and the IC50 [24] was 25.3 nM. The IC50 [25] was 19.4 nM, the IC50 [26] was > 256 nM and the IC50 [27] was 16.6 nM. The IC50 [28] was 26.9 nM, the IC50 [29] was > 256 nM and the IC50 [30] was 5.89 nM. For the same compound, the IC50 [31] was 123 nM, the IC50 [32] was 25.2 nM and the IC50 [33] was 60.6 nM. For the same compound, the IC50 [34] was > 256 nM, the IC50 [35] was 60 nM and the IC50 [36] was 66.3 nM. The IC50 [37] was 17.7 nM, the IC50 [38] was > 256 nM and the IC50 [39] was 27.7 nM. For the same compound, the IC50 [40] was 83.9 nM, the IC50 [41] was > 256 nM and the IC50 [42] was 9.86 nM. For the same compound, the IC50 [43] was 20.8 nM, the IC50 [44] was > 256 nM and the IC50 [45] was 23.4 nM. For the same compound, the IC50 [46] was > 256 nM, the IC50 [47] was 26.2 nM and the IC50 [48] was 81.2 nM.

Compound N[C@@H](CSC(c1ccccc1)(c1ccccc1)c1ccccc1)C(=O)O [S-TRITYL-L-CYSTEINE] has an IC50 [1] of 2770 nM, an IC50 [2] of 3910 nM and an IC50 [3] of 4340 nM. For the same compound, the IC50 [4] was 1760 nM, the IC50 [5] was 453 nM and the IC50 [6] was > 5120 nM. For the same compound, the IC50 [7] was > 5120 nM, the IC50 [8] was > 5120 nM and the IC50 [9] was 1140 nM. The IC50 [10] was > 5120 nM, the IC50 [11] was 1890 nM and the IC50 [12] was > 5120 nM. For the same compound, the IC50 [13] was > 5120 nM, the IC50 [14] was 2420 nM and the IC50 [15] was 2590 nM. For the same compound, the IC50 [16] was 5040 nM, the IC50 [17] was > 5120 nM and the IC50 [18] was > 5120 nM. For the same compound, the IC50 [19] was 2220 nM, the IC50 [20] was > 5120 nM and the IC50 [21] was 1800 nM. For the same compound, the IC50 [22] was 3150 nM, the IC50 [23] was 2780 nM and the IC50 [24] was 1070 nM. For the same compound, the IC50 [25] was > 5120 nM, the IC50 [26] was > 5120 nM and the IC50 [27] was 970 nM. The IC50 [28] was 4290 nM, the IC50 [29] was > 5120 nM and the IC50 [30] was 722 nM. The IC50 [31] was 2310 nM, the IC50 [32] was > 5120 nM and the IC50 [33] was > 5120 nM. For the same compound, the IC50 [34] was > 5120 nM, the IC50 [35] was 1950 nM and the IC50 [36] was 2240 nM. The IC50 [37] was 990 nM, the IC50 [38] was > 5120 nM and the IC50 [39] was 795 nM. For the same compound, the IC50 [40] was 3180 nM, the IC50 [41] was > 5120 nM and the IC50 [42] was 328 nM. The IC50 [43] was > 5120 nM, the IC50 [44] was > 5120 nM and the IC50 [45] was > 5120 nM. The IC50 [46] was > 5120 nM, the IC50 [47] was 1050 nM and the IC50 [48] was 1730 nM.

With Cc1ccc(-c2c(C(=O)CCl)n(CCCO)c3ncnc(N)c23)cc1 the IC50 [1] was > 4000 nM, the IC50 [2] was > 4000 nM and the IC50 [3] was > 4000 nM. The IC50 [4] was > 4000 nM, the IC50 [5] was > 4000 nM and the IC50 [6] was > 4000 nM. For the same compound, the IC50 [7] was > 4000 nM, the IC50 [8] was > 4000 nM and the IC50 [9] was 3660 nM. For the same compound, the IC50 [10] was > 4000 nM, the IC50 [11] was > 4000 nM and the IC50 [12] was > 4000 nM. For the same compound, the IC50 [13] was > 4000 nM, the IC50 [14] was > 4000 nM and the IC50 [15] was > 4000 nM. For the same compound, the IC50 [16] was > 4000 nM, the IC50 [17] was > 4000 nM and the IC50 [18] was > 4000 nM. The IC50 [19] was > 4000 nM, the IC50 [20] was > 4000 nM and the IC50 [21] was > 4000 nM. The IC50 [22] was > 4000 nM, the IC50 [23] was > 4000 nM and the IC50 [24] was 1310 nM. The IC50 [25] was > 4000 nM, the IC50 [26] was > 4000 nM and the IC50 [27] was > 4000 nM. The IC50 [28] was > 4000 nM, the IC50 [29] was > 4000 nM and the IC50 [30] was 1970 nM. For the same compound, the IC50 [31] was > 4000 nM, the IC50 [32] was > 4000 nM and the IC50 [33] was > 4000 nM. The IC50 [34] was 699 nM, the IC50 [35] was > 4000 nM and the IC50 [36] was 2500 nM. The IC50 [37] was > 4000 nM, the IC50 [38] was > 4000 nM and the IC50 [39] was > 4000 nM. The IC50 [40] was > 4000 nM, the IC50 [41] was > 4000 nM and the IC50 [42] was 293 nM. For the same compound, the IC50 [43] was 3940 nM, the IC50 [44] was > 4000 nM and the IC50 [45] was > 4000 nM. For the same compound, the IC50 [46] was > 4000 nM, the IC50 [47] was > 4000 nM and the IC50 [48] was > 4000 nM.
